One block for each molecule: values may come before it.
Legend:
[1] = biological target: T1, EGFR (Mus musculus, UniProt Q01279); assay: LDNPs-mediated EGFR activation in LPS-treated Raw264.7 cells with AG1478; type: cell-based; conditions: AG1478 150 nM
T1 construct: endogenous in cells; host or cells: Raw264.7
Method: (§1) Real-time quantitative PCR Total mRNA was extracted from mouse liver and intestine tissues using Trizol reagent (Life Technologies, Carlsbad, California, United States of America) according to the manufacturer's instruction and reverse-transcribed using cDNA Supermix (QuantaBio, Beverly, Massachusetts, United States of America). 18S and Gapdh were used as internal controls. Real-time qPCR was performed on an ABI 7300 fast real-time PCR thermocycler, where SYBR green PCR Master Mix (Applied Biosystems, Foster City, California, United States of America) was used. The relative gene expression was determined by the ΔΔCT method.
Raw264.7 cells were pretreated with LDNPs (0.2 μg/ml) or the EGFR inhibitor AG1478 (150 nM) for 20 hours and then treated with LPS for 4 hours to induce inflammation response as depicted in the top panel of the FIG. 13A. The bottom panel of FIG. 13A is a representative western blot of phosphorylated EGFR (P-EGFR Tyr 1068), Total-EGFR, PI3K, phosphorylated Akt (P-Akt), total-Akt, phosphorylated NF-κB (P-NF-κB), and β-actin showing that expression of several of these proteins were modulated by LDNP treatment.

[2] = system: Caco-2 cells; assay: Tight junction, Cyp1a1 and Nrf2 expression in Caco-2 cells; type: cell-based, human
Method: as §1
Western Blotting. Protein was extracted from frozen intestine tissues. Western blotting was performed as described in (Shao et al. (2018) Intestinal HIF-1α deletion exacerbates alcoholic liver disease by inducing intestinal dysbiosis and barrier dysfunction. Journal of Hepatology 69:886-895). Antibodies used for western blotting for proteins ZO-1, Occludin, and Claudin-1 were from Cell Signaling (Danvers, Massachusetts, United States of America). Nrf-2, β-actin and Histone H3 antibodies were purchased from Abcam (Cambridge, Massachusetts, United States of America). For western blotting in Caco-2 cell derived NPs and LDNPs, CD 63 antibody from System Bioscience (Palo Alto, California, United States of America) was used.
Cell culture. Mouse macrophages RAW 264.7 and the human intestinal epithelial cells Caco-2 were maintained in DMEM-high glucose and EMEM-high glucose (Corning; 10-009CV) respectively. The medium was supplemented with 10% fetal bovine serum, 1X penicillin-streptomycin solution (100U/ml penicillin, and 100 μg/ml streptomycin; Sigma Aldrich) in a humidified atmosphere (5% CO2, 95% air, 37° C.). Peritoneal macrophages and bone marrow-derived macrophages (BMDM) were isolated from mice as described in (Ying et al. (2013) Investigation of Macrophage Polarization Using Bone Marrow Derived Macrophages. Journal of Visualized Experiments 76:50323.). Isolated BMDM were then cultured in modified DMEM medium with macrophage colony-stimulating factor (M-CSF), which is a cytokine that directs cell differentiation. Cells were utilized for experimentation at 70-80% confluence. RAW264.7, peritoneal macrophages (PMs) and bone marrow-derived macrophages (BMDMs) were pretreated with LDNPs (0.2 μg/ml for 20 hours) and then treated with E. coli-derived lipopolysaccharides (LPS; O55:B5; Sigma) at 100 ng/mL concentration for 4 hours. Caco-2 cells at 70-80% confluence were treated with LDNPs (0.2 μg/ml), I3A (0.1 mM), the AhR inhibitor, CH-223191 (10 μM) or Nrf2 inhibitor, ML385 (5 μM) for 24 hours. Lamina propria lymphocytes (LPLs) were treated with LDNPs (0.2 μg/ml), I3A (0.1 mM) or the AhR inhibitor, CH223191 (10 μM) for 24 hours.
Measurement of Cvp1A1 enzyme activity in vitro. Caco-2 cells (50,000 cells/well) were plated in a 48-well plate. Cells were then treated with LDNPs (0.2 μg/ml) or Indole-3-aldehyde (I3A, 0.1 mM) for 24 hours. After treatment, cells were washed to remove any residual LDNPs or I3A, then the wells were replenished with fresh medium containing Cyp1A1 substrate as per the protocol provided with a P450-GLO™ CYP1A1 Assay System brand kit (Promega Corporation, Madison, Wisconsin, United States of America) for 3 hours. After incubation, 25 μl of culture medium was removed from each well and transferred to a 96-well white opaque plate and 25 μl of luciferin detection reagent was added to initiate the luminescence reaction and plate was incubated at room temperature for 20 minutes. After incubation, luminescence was recorded using a luminometer. The data were reported as foldchange over vehicle treatment.

[3] = system: AhR; assay: ALD mouse model with AhR inhibitor CH223191 co-administration; type: in vivo
Method: Animals and treatments. C57BL/6J mice (6-8 weeks of age) from Jackson Laboratory (Bar Harbor, Maine, United States of America) were maintained at 22° C. with a 12 hour light/dark cycle and initially had free access to a normal chow diet and tap water. Mice were then fed the Lieber DeCarli Diet containing 5% alcohol (w/v) (Alcohol-fed, AF) or isocaloric maltose dextrin (Pair-fed, PF). For the AF groups, mice were initially fed the control Lieber-DeCarli liquid diet (Bio-Serve, Flemington, New Jersey, United States of America) for 5 days to acclimate to the liquid diet. […] Mice in PF group were fed isocaloric maltose dextrin in substitution for alcohol in the liquid diet. On experimental Day 10, a bolus of EtOH (5 g/kg body weight) was given to AF mice by gavage 9 hours before harvesting, while mice in PF groups received a gavage of isocaloric maltose dextrin (10d+1b model). LDNPs were administered to mice in the last 3 days by daily gavage of 200 μL of LDNPs (50 μg protein content). AhR inhibitor, CH223191 (Sigma-Aldrich, St. Louis, Missouri, United States of America) was gavaged at […] in last three days. Control mice were gavaged with an equal volume of control vehicle (PBS).
Whether the beneficial effects of LDNPs in ALD were mediated by the intestinal AhR pathway was tested by administrating the AhR inhibitor CH223191 to alcohol-fed mice. […] Importantly, the suppressive effect on hepatic fat by LDNP treatment was blunted when CH223191 was co-administered.

[4] = system: lamina propria lymphocytes (LPLs); assay: AhR signaling in lamina propria lymphocytes; type: cell-based, mouse; conditions: AhR inhibitor 10 μM
[5] = alcohol-fed, CH223191 co-administered
[6] = alcohol-fed, co-fed with CH223191
[7] = Caco-2, LDNPs 0.2 μg/ml, I3A 0.1 mM, 24 hours

T1 sequence (Q01279 25-1210): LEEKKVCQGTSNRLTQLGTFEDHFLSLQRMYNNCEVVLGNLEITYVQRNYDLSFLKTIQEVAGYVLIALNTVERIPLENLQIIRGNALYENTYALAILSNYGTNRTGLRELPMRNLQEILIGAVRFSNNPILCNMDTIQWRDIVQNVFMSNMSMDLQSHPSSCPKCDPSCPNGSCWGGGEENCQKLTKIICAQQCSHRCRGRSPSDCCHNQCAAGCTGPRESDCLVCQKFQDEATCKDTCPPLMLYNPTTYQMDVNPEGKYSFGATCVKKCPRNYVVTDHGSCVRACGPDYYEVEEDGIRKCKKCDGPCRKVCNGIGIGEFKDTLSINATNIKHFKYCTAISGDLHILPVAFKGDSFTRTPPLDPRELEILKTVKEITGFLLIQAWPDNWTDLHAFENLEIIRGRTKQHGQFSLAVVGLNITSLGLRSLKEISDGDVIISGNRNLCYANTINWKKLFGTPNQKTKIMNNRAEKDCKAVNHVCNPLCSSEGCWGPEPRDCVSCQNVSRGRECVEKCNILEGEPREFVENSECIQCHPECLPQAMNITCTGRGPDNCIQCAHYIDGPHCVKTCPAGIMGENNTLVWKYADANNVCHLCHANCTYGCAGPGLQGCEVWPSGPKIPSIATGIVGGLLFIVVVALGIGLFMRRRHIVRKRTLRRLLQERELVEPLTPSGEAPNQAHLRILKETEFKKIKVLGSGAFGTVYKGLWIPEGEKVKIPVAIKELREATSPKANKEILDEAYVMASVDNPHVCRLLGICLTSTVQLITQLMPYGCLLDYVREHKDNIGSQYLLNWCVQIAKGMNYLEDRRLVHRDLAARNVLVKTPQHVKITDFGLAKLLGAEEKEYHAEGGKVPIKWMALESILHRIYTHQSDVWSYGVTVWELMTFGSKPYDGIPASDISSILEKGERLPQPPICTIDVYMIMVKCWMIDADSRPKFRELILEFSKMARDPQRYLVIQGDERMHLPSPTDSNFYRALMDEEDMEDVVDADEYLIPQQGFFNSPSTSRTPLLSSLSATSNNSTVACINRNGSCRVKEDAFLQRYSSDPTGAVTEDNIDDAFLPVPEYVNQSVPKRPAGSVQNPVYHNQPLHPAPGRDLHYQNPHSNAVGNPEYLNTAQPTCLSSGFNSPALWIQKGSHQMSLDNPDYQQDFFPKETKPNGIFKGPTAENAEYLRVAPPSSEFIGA

Compound: COc1cc2ncnc(Nc3cccc(Cl)c3)c2cc1OC [AG1478]
- LDNP-mediated reduction of IL-1β mRNA [1]: inhibited
- LDNP-mediated reduction of TNF-α mRNA [1]: inhibited

- LDNP-induced Cyp1a1 activity [2]: not
- LDNP-induced Cyp1a1 mRNA expression [2]: blocked
- LDNP-induced Nrf2 mRNA expression [2]: completely inhibited
- LDNP-induced Nrf2 protein expression [2]: completely inhibited
Compound: Cc1ccccc1C(=O)N1CCc2cc(-c3nc(NC(=O)Cc4ccc5c(c4)OCO5)sc3C)ccc21 [ML385]

Compound: Cc1ccccc1N=Nc1ccc(NC(=O)c2ccnn2C)c(C)c1 [CH223191]
- ileum Nqo1 mRNA expression ([3]; AF mice, agent alone): reduced
- ileum Nrf2 mRNA expression ([3]; AF mice, agent alone): reduced
- LDNP-induced increase of IL-22 protein [3, 5]: completely inhibited
- LDNP-induced increase of Il22 mRNA [3, 5]: completely inhibited
- suppressive effect of LDNP treatment on hepatic fat [3, 5]: blunted
- upregulation of Reg3g by LDNPs [3, 5]: blocked
- ileum Cyp1a1 mRNA expression ([3]; alcohol-fed, LDNPs gavaged with the inhibitor): no change
- IL-22 protein expression ([3]; alcohol-fed, agent alone): reduced
- hepatic bacteria load ([3]; alcohol-fed, agent alone): significantly increased
- hepatic fat accumulation ([3]; alcohol-fed, agent alone): significantly increased
- ileum Cyp1a1 mRNA expression ([3]; alcohol-fed, agent alone): reduced
- ileum Il22 mRNA expression ([3]; alcohol-fed, agent alone): reduced
- ileum Reg3g mRNA expression ([3]; alcohol-fed, agent alone): reduced
- serum ALT ([3]; alcohol-fed, agent alone): slightly increased
- serum AST ([3]; alcohol-fed, agent alone): slightly increased
- effects of LDNPs on serum ALT [3, 6]: blocked
- effects of LDNPs on serum AST [3, 6]: blocked
- effect of LDNPs on hepatic bacteria load ([3]; alcohol-fed, inhibitor co-administered): blocked
- LDNPs-induced Cyp1a1 mRNA expression [4]: completely inhibited
- LDNPs-induced Il22 mRNA expression [4]: completely inhibited
- LDNPs-induced upregulation of IL-22 protein [4]: completely inhibited
- LDNPs-induced Cyp1a1 mRNA expression ([4]; listed as CH229131): blocked
- LDNPs-induced Il22 mRNA expression ([4]; listed as CH229131): blocked
- I3A-induced Cyp1a1 activity [2]: blocked
- I3A-induced Cyp1a1 mRNA expression [2]: blocked
- LDNP-induced Cyp1a1 activity [2]: blocked
- LDNP-induced Cyp1a1 mRNA expression [2]: blocked
- LDNP-induced Nrf2 mRNA expression [2]: blocked
- LDNP-induced Nrf2 protein expression [2]: blocked

Compound: O=Cc1c[nH]c2ccccc12 [I3A, indole-3-aldehyde]
- protein expression of tight junction proteins ([2]; Caco-2, LDNPs 0.2 μg/ml, I3A 0.1 mM): increased
- Cyp1a1 activity [2, 7]: markedly increased
- Cyp1a1 mRNA expression [2, 7]: markedly increased

Source: patent US20240009256A1, “USE OF PROBIOTIC BACTERIUM-DERIVED EXTRACELLULAR MICRO- AND/OR NANOPARTICLES FOR THE TREATMENT OF DISEASE” (University of Louisville Research Foundation, Inc., priority 2020, published 2024)
